Measurements published in patent US9873680B2 (Gilead Sciences, Inc., priority 2014, dated 2018).
Read-outs that look alike come from different tables or passages of the source.

Experiments:
HIV-IIIb = assay: Test A: Antiviral Assay in MT4 Cells; format: cell-based, HIV-1; conditions: read-out: % inhibition at 0.2 μM (percent inhibition of virus-induced cell killing)
How it was run: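 MT-4 cells were preinfected with HIV-IIIb […]. Cell viability, as protection from viral cytopathic effect, was read by CellTiter-Glo chemiluminescence.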

[1] = Test B: Cytotoxicity Assay; format: cell-based; conditions: human, uninfected MT-4 cells, CellTiter-Glo
Method: Test B: Cytotoxicity Assay Compound cytotoxicity and the corresponding CC50 values was determined using the same protocol as described in the antiviral assay (Test A) except that uninfected cells were used.

[2] = Human immunodeficiency virus 1, MT4, 120 h, 0.2 μM drug concentration, MT-4 cells infected with HIV-IIIb, 5 days, values normalized to 100%, average over time

Row | Structure (SMILES) | inhibition at 0.2 µM (HIV-IIIb; [2]) [%] | CC50 at 5 days [1] [µM] | inhibition at 0.2 µM (HIV-IIIb; Human immunodeficiency virus 1, IIIB, MT4, 120 h) [%]
1 | Cn1nc(NS(C)(=O)=O)c2c(Cl)ccc(-c3ccc(C#CC4(C)CNCCO4)nc3[C@H](Cc3cc(F)cc(F)c3)NC(=O)Cn3nc(C(F)F)c4c3C(F)(F)[C@@H]3C[C@H]43)c21 (stereo partly drawn) [Compound 77, N-((1S)-1-(3-(4-chloro-1-methyl-3-(methylsulfonamido)-1H-indazol-7-yl)-6-((2-methylmorpholin-2-yl)ethynyl)pyridin-2-yl)-2-(3,5-difluorophenyl)ethyl)-2-((3bS,4aR)-3-(difluoromethyl)-5,5-difluoro-3b,4,4a,5-tetrahydro-1H-cyclopropa[3,4]cyclopenta[1,2-c]pyrazol-1-yl)acetamide] | 90 | 7.7 | –
2 | CN1CC(O)(C#Cc2ccc(-c3cccc4c(NS(C)(=O)=O)nn(C)c34)c([C@H](Cc3cc(F)cc(F)c3)NC(=O)Cn3nc(C(F)(F)F)c4c3C(F)(F)[C@@H]3C[C@H]43)n2)C1 [Compound 23C, 2-((3bS,4aR)-5,5-difluoro-3-(trifluoromethyl)-3b,4,4a,5-tetrahydro-1H-cyclopropa[3,4]cyclopenta[1,2-c]pyrazol-1-yl)-N—((S)-2-(3,5-difluorophenyl)-1-(6-((3-hydroxy-1-methylazetidin-3-yl)ethynyl)-3-(1-methyl-3-(methylsulfonamido)-1H-indazol-7-yl)pyridin-2-yl)ethyl)acetamide] | 100 | 9.19 | –
3 | Cn1nc(NS(C)(=O)=O)c2c(Cl)ccc(-c3ccc(C#CC(C)(O)Cn4cncn4)nc3[C@H](Cc3cc(F)cc(F)c3)NC(=O)Cn3nc(C(F)(F)F)c4c3C(F)(F)[C@@H]3C[C@H]43)c21 (stereo partly drawn) [Compound 70B, N-((1S)-1-(3-(4-chloro-1-methyl-3-(methylsulfonamido)-1H-indazol-7-yl)-6-(3-hydroxy-3-methyl-4-(1H-1,2,4-triazol-1-yl)but-1-yn-1-yl)pyridin-2-yl)-2-(3,5-difluorophenyl)ethyl)-2-((3bS,4aR)-5,5-difluoro-3-(trifluoromethyl)-3b,4,4a,5-tetrahydro-1H-cyclopropa[3,4]cyclopenta[1,2-c]pyrazol-1-yl)acetamide] | 96 | 14.2 | –
4 | Cn1nc(NS(C)(=O)=O)c2c(Cl)ccc(-c3ccc(C#CC4(CO)CC4)nc3[C@H](Cc3cc(F)cc(F)c3)NC(=O)Cn3nc(C(F)F)c4c3C(F)(F)[C@@H]3C[C@H]43)c21 [Compound 94B, N—((S)-1-(3-(4-chloro-1-methyl-3-(methylsulfonamido)-1H-indazol-7-yl)-6-((1-(hydroxymethyl)cyclopropyl)ethynyl)pyridin-2-yl)-2-(3,5-difluorophenyl)ethyl)-2-((3bS,4aR)-3-(difluoromethyl)-5,5-difluoro-3b,4,4a,5-tetrahydro-1H-cyclopropa[3,4]cyclopenta[1,2-c]pyrazol-1-yl)acetamide] | 91 | 12.4 | –
5 | Cn1nc(NS(C)(=O)=O)c2c(Cl)ccc(-c3ccc(C#CC4(C)OCCn5ccnc54)nc3[C@H](Cc3cc(F)cc(F)c3)NC(=O)Cn3nc(C(F)(F)F)c4c3C(F)(F)[C@@H]3C[C@H]43)c21 (stereo partly drawn) [Compound 81E] | – | > 57 | 87
6 | Cn1nc(NS(C)(=O)=O)c2cccc(-c3ccc(C#CC4(C)COC4)nc3[C@H](Cc3cc(F)cc(F)c3)NC(=O)Cn3nc(C(F)(F)F)c4c3C(F)(F)[C@@H]3C[C@H]43)c21 [Compound 29, 2-((3bS,4aR)-5,5-difluoro-3-(trifluoromethyl)-3b,4,4a,5-tetrahydro-1H-cyclopropa[3,4]cyclopenta[1,2-c]pyrazol-1-yl)-N—((S)-2-(3,5-difluorophenyl)-1-(3-(1-methyl-3-(methylsulfonamido)-1H-indazol-7-yl)-6-((3-methyloxetan-3-yl)ethynyl)pyridin-2-yl)ethyl)acetamide] | 100 | 12.4 | –
7 | Cn1nc(NS(C)(=O)=O)c2c(Cl)ccc(-c3ccc(C#CC(C)(O)C4CC4)nc3[C@H](Cc3cc(F)cc(F)c3)NC(=O)Cn3nc(C(F)(F)F)c4c3C(F)(F)[C@@H]3C[C@H]43)c21 (stereo partly drawn) [Compound 59, N-((1S)-1-(3-(4-chloro-1-methyl-3-(methylsulfonamido)-1H-indazol-7-yl)-6-(3-cyclopropyl-3-hydroxybut-1-yn-1-yl)pyridin-2-yl)-2-(3,5-difluorophenyl)ethyl)-2-((3bS,4aR)-5,5-difluoro-3-(trifluoromethyl)-3b,4,4a,5-tetrahydro-1H-cyclopropa[3,4]cyclopenta[1,2-c]pyrazol-1-yl)acetamide] | 95 | 10.2 | –
8 | CN(C)c1ccc(C#Cc2ccc(-c3ccc4c(c3)C(=O)NC4)c([C@H](Cc3cc(F)cc(F)c3)NC(=O)Cn3nc(C(F)(F)F)c4c3C(F)(F)[C@@H]3C[C@H]43)n2)cc1 [Compound 14, 2-((3bS,4aR)-5,5-difluoro-3-(trifluoromethyl)-3b,4,4a,5-tetrahydro-1H-cyclopropa[3,4]cyclopenta[1,2-c]pyrazol-1-yl)-N—((S)-2-(3,5-difluorophenyl)-1-(6-((4-(dimethylamino)phenyl)ethynyl)-3-(3-oxoisoindolin-5-yl)pyridin-2-yl)ethyl)acetamide] | 1 | > 53.2 | –
9 | Cn1nc(NS(C)(=O)=O)c2c(Cl)ccc(-c3ccc(C#CC4(O)CCC4)nc3[C@H](Cc3cc(F)cc(F)c3)NC(=O)Cn3nc(C(F)(F)F)c4c3C(F)(F)[C@@H]3C[C@H]43)c21 [Compound 61C, N—((S)-1-(3-(4-chloro-1-methyl-3-(methylsulfonamido)-1H-indazol-7-yl)-6-((1-hydroxycyclobutyl)ethynyl)pyridin-2-yl)-2-(3,5-difluorophenyl)ethyl)-2-((3bS,4aR)-5,5-difluoro-3-(trifluoromethyl)-3b,4,4a,5-tetrahydro-1H-cyclopropa[3,4]cyclopenta[1,2-c]pyrazol-1-yl)acetamide] | 93 | 7.89 | –
10 | Cn1nc(NS(C)(=O)=O)c2cccc(-c3ccc(C#CCN4CCOCC4)nc3[C@H](Cc3cc(F)cc(F)c3)NC(=O)Cn3nc(C(F)(F)F)c4c3C(F)(F)[C@@H]3C[C@H]43)c21 [Compound 34, 2-((3bS,4aR)-5,5-difluoro-3-(trifluoromethyl)-3b,4,4a,5-tetrahydro-1H-cyclopropa[3,4]cyclopenta[1,2-c]pyrazol-1-yl)-N—((S)-2-(3,5-difluorophenyl)-1-(3-(1-methyl-3-(methylsulfonamido)-1H-indazol-7-yl)-6-(3-morpholinoprop-1-yn-1-yl)pyridin-2-yl)ethyl)acetamide] | 87 | 10.2 | –
11 | Cc1nccn1C(C)(C)C#Cc1ccc(-c2ccc(Cl)c3c(NS(C)(=O)=O)nn(C)c23)c([C@H](Cc2cc(F)cc(F)c2)NC(=O)Cn2nc(C(F)F)c3c2C(F)(F)[C@@H]2C[C@H]32)n1 [Compound 89B] | 87 | 8.31 | –
12 | Cn1nc(NS(C)(=O)=O)c2c(Cl)ccc(-c3ccc(C#CC(C)(C)n4cn[nH]c4=O)nc3[C@H](Cc3cc(F)cc(F)c3)NC(=O)Cn3nc(C(F)F)c4c3C(F)(F)[C@@H]3C[C@H]43)c21 [Compound 98D, N—((S)-1-(3-(4-chloro-1-methyl-3-(methylsulfonamido)-1H-indazol-7-yl)-6-(3-methyl-3-(5-oxo-1H-1,2,4-triazol-4(5H)-yl)but-1-yn-1-yl)pyridin-2-yl)-2-(3,5-difluorophenyl)ethyl)-2-((3bS,4aR)-3-(difluoromethyl)-5,5-difluoro-3b,4,4a,5-tetrahydro-1H-cyclopropa[3,4]cyclopenta[1,2-c]pyrazol-1-yl)acetamide] | 94 | 10.4 | –
13 | Cn1nc(NS(C)(=O)=O)c2c(Cl)ccc(-c3ccc(C#CC4(O)CCOCC4)nc3[C@H](Cc3cc(F)cc(F)c3)NC(=O)Cn3nc(C(F)(F)F)c4c3C(F)(F)[C@@H]3C[C@H]43)c21 [Compound 39, N—((S)-1-(3-(4-chloro-1-methyl-3-(methylsulfonamido)-1H-indazol-7-yl)-6-((4-hydroxytetrahydro-2H-pyran-4-yl)ethynyl)pyridin-2-yl)-2-(3,5-difluorophenyl)ethyl)-2-((3bS,4aR)-5,5-difluoro-3-(trifluoromethyl)-3b,4,4a,5-tetrahydro-1H-cyclopropa[3,4]cyclopenta[1,2-c]pyrazol-1-yl)acetamide] | 95 | 10.7 | –
14 | Cn1nc(NS(C)(=O)=O)c2c(Cl)ccc(-c3ccc(C#CC4(O)CC(F)(F)C4)nc3[C@H](Cc3cccc(F)c3)NC(=O)Cn3nc(C(F)F)c4c3C(F)(F)[C@@H]3C[C@H]43)c21 [Compound 101H, N—((S)-1-(3-(4-chloro-1-methyl-3-(methylsulfonamido)-1H-indazol-7-yl)-6-((3,3-difluoro-1-hydroxycyclobutyl)ethynyl)pyridin-2-yl)-2-(3-fluorophenyl)ethyl)-2-((3bS,4aR)-3-(difluoromethyl)-5,5-difluoro-3b,4,4a,5-tetrahydro-1H-cyclopropa[3,4]cyclopenta[1,2-c]pyrazol-1-yl)acetamide] | 91 | 9.1 | –
15 | Cn1nc(NS(C)(=O)=O)c2c(Cl)ccc(-c3ccc(C#CC4CCCN4)nc3[C@H](Cc3cc(F)cc(F)c3)NC(=O)Cn3nc(C(F)(F)F)c4c3C(F)(F)[C@@H]3C[C@H]43)c21 (stereo partly drawn) [Compound 43H, N-((1S)-1-(3-(4-chloro-1-methyl-3-(methylsulfonamido)-1H-indazol-7-yl)-6-(pyrrolidin-2-ylethynyl)pyridin-2-yl)-2-(3,5-difluorophenyl)ethyl)-2-((3bS,4aR)-5,5-difluoro-3-(trifluoromethyl)-3b,4,4a,5-tetrahydro-1H-cyclopropa[3,4]cyclopenta[1,2-c]pyrazol-1-yl)acetamide] | 99 | 4.34 | –
